# Measured values taken from ChEMBL document CHEMBL1201862, “PubChem BioAssay data set” (2004).
#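 A five-concentration, 48-hour dose response in 96-well plates underlies each endpoint, interpolated linearly between surrounding concentrations. At the GI50, growth is halved.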 Active and inactive are the calls of the source. Cut-off read from the data, not from the text of the source: active = GI50 up to about 1.1 µM and inactive = higher.
# How the values were obtained:
# Experiment in all cases: NCI anticancer screen, dose series, 48 h
# [1] = test system: RPMI-8226
# [2] = test system: RXF 393
# [3] = test system: SR
# [4] = test system: M14
# [5] = test system: SK-OV-3
# [6] = test system: OVCAR-3
# [7] = test system: HT-29
# [8] = test system: UACC-257
# [9] = test system: KM12
# [10] = test system: SW-620
# [11] = test system: SN12C
# [12] = test system: MDA-MB-231
# [13] = test system: A549
# [14] = test system: SF-268
# [15] = test system: HOP-62
# [16] = test system: IGROV-1
# [17] = test system: NCI-H23
# [18] = test system: PC-3
# [19] = test system: U-251
# [20] = test system: SK-MEL-28
SMILES,GI50 [1],GI50 [2],GI50 [3],GI50 [4],GI50 [5],GI50 [6],GI50 [7],GI50 [8],GI50 [9],GI50 [10],GI50 [11],GI50 [12],GI50 [13],GI50 [14],GI50 [15],GI50 [16],GI50 [17],GI50 [18],GI50 [19],GI50 [20]
CCCCc1ccc(Nc2nc(Cl)c3[nH]cnc3n2)cc1,33.2 µM (inactive),17.1 µM (inactive),47.8 µM (inactive),20.9 µM (inactive),34.3 µM (inactive),14.8 µM (inactive),19.9 µM (inactive),16.2 µM (inactive),17.1 µM (inactive),19.2 µM (inactive),22.4 µM (inactive),16.6 µM (inactive),33.5 µM (inactive),22 µM (inactive),14 µM (inactive),25.6 µM (inactive),17.7 µM (inactive),–,–,–
Cc1ccc(/C=C2\Cc3cccc(C)c3C2=O)c(C(=O)O)c1,36.3 µM (inactive),29.3 µM (inactive),90.4 µM (inactive),> 100 µM (inactive),–,94.2 µM (inactive),> 100 µM (inactive),> 100 µM (inactive),55.5 µM (inactive),> 100 µM (inactive),> 100 µM (inactive),66.2 µM (inactive),74.3 µM (inactive),> 100 µM (inactive),> 100 µM (inactive),96.6 µM (inactive),> 100 µM (inactive),99.5 µM (inactive),57.9 µM (inactive),97.3 µM (inactive)
COc1cc(C2c3cc4c(cc3OC(Nc3ccccc3)C2C)OCO4)cc(OC)c1O (configuration not stated),3.69 µM (inactive),4.45 µM (inactive),–,15.5 µM (inactive),–,4.47 µM (inactive),3.85 µM (inactive),7.73 µM (inactive),4.41 µM (inactive),3.37 µM (inactive),4.66 µM (inactive),4.33 µM (inactive),3.85 µM (inactive),7.48 µM (inactive),–,4.55 µM (inactive),7.03 µM (inactive),2.8 µM (inactive),3.95 µM (inactive),5.57 µM (inactive)
CCCCCCSC[C@H](OC(C)=O)[C@@H](OC(C)=O)[C@@H](OC(C)=O)[C@@H](COC(C)=O)OC(C)=O,13.3 µM (inactive),> 100 µM (inactive),–,89.7 µM (inactive),> 100 µM (inactive),80.9 µM (inactive),> 100 µM (inactive),> 100 µM (inactive),41.9 µM (inactive),> 100 µM (inactive),> 100 µM (inactive),> 100 µM (inactive),71.1 µM (inactive),> 100 µM (inactive),> 100 µM (inactive),83.8 µM (inactive),> 100 µM (inactive),27.7 µM (inactive),> 100 µM (inactive),> 100 µM (inactive)
Cc1cnc2nc(-c3ccc(Cl)cc3)cc(O)c2c1,3.88 µM (inactive),–,0.598 µM (active),5.81 µM (inactive),18.4 µM (inactive),2.95 µM (inactive),3.27 µM (inactive),11.5 µM (inactive),3.76 µM (inactive),4.06 µM (inactive),6.31 µM (inactive),5.27 µM (inactive),5.05 µM (inactive),19.7 µM (inactive),5.86 µM (inactive),5.66 µM (inactive),29.4 µM (inactive),2.12 µM (inactive),3.9 µM (inactive),> 22.9 µM (inactive)
CCCC[S+]([O-])CCC(N)C(=O)O (configuration not stated),–,> 100 µM (inactive),> 100 µM (inactive),> 100 µM (inactive),> 100 µM (inactive),> 100 µM (inactive),> 100 µM (inactive),> 100 µM (inactive),> 100 µM (inactive),> 100 µM (inactive),> 100 µM (inactive),> 100 µM (inactive),> 100 µM (inactive),> 100 µM (inactive),> 100 µM (inactive),> 100 µM (inactive),> 100 µM (inactive),> 100 µM (inactive),> 100 µM (inactive),> 100 µM (inactive)
CC1CC(C)C(O)C(C2CC(CC(=O)NC3CCCCC3)CC(=O)O2)C1 (configuration not stated),> 100 µM (inactive),> 100 µM (inactive),> 100 µM (inactive),> 100 µM (inactive),–,> 100 µM (inactive),> 100 µM (inactive),> 100 µM (inactive),> 100 µM (inactive),> 100 µM (inactive),87.9 µM (inactive),> 100 µM (inactive),> 100 µM (inactive),> 100 µM (inactive),> 100 µM (inactive),> 100 µM (inactive),> 100 µM (inactive),> 100 µM (inactive),> 100 µM (inactive),> 100 µM (inactive)
O=C(NCCCCCCNC(=O)c1cccc2ccccc12)Nc1cccc2ccccc12,> 100 µM (inactive),> 100 µM (inactive),–,> 100 µM (inactive),–,> 100 µM (inactive),> 100 µM (inactive),> 100 µM (inactive),> 100 µM (inactive),> 100 µM (inactive),> 100 µM (inactive),> 100 µM (inactive),> 100 µM (inactive),> 100 µM (inactive),> 100 µM (inactive),> 100 µM (inactive),> 100 µM (inactive),> 100 µM (inactive),> 100 µM (inactive),> 100 µM (inactive)
